These compounds were tested against T1, PD-1/PD-L1 (Homo sapiens, UniProt Q9NZQ7) (assay: PD1-PDL1 HTRF assay). Details: PD-1/PD-L1 homogenous time-resolved fluorescence (HTRF) binding assay; Tag1-PDL1 5 nM, Tag2-PD1 50 nM.
T1 construct: purchased CisBio
Source text: The CisBio HTRF assay kit, purchased from CisBio only, was employed to determine the IC50 values of compounds. The PD1-PDL1 HTRF assay measures the interactions between the two proteins, PD1 and PDL1. The interaction is detected by using anti-Tag1 labeled with Europium (HTRF donor) which binds to PDL1 and anti-Tag2 labeled with XL665 (HTRF acceptor) which binds to PD1. When the two antibodies are in proximity, the excitation of the donor fluorophore results in FRET emission from the acceptor fluorophore. The presence of inhibitors for such an interaction result in reduction of HTRF signal.
The assay was conducted in 96-well white assay plates. All the reagents, including Tag1-PDL1, Tag2-PD1, Anti-Tag1-PDL1, Anti-Tag2-PD1 were thawed and diluted with PPI Europium Detection buffer to achieve the desired concentration as per the manufacturer's protocol. A 1000 μM stock solution of test inhibitors was prepared in DMSO. The stock solution was diluted in DMSO to prepare 8 concentrations (1000-0.001 μM). These stock solutions were further diluted in PPI Europium detection buffer to prepare 8 working stock solutions (100-0.0001 μM). To the 96-well plate, 2 μL of the test inhibitor working stock solutions were added followed by 4 μL of Tag1-PDL1 (5 nM) and 4 μL of Tag2-PD1 (50 nM). The plate was incubated at room temperature for 15 min. Subsequently, 10 μL of pre-mixed Anti-Tag1-PDL1 and Anti-Tag2-PD1 solution was added. The plate was sealed and incubated at room temperature for 1 h. The HTRF signal was read on Perkin Elmer Envision plate reader using excitation wavelength of 320 nm, emission wavelengths of 620 nm and 665 nm. Results were obtained by calculating the ratio of signal from acceptor at 665 nm to that of signal from donor at 620 nm multiplied by […]. The IC50 values were determined by the Hill equation using GraphPad Prism software.

T1 sequence (Q9NZQ7 19-238 limits assumed): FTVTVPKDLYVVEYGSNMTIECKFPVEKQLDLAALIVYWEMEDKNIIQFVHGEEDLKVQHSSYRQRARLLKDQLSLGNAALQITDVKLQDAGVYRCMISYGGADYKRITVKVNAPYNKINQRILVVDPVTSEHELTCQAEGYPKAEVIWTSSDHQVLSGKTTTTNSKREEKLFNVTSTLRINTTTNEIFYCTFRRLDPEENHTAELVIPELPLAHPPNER

IC50	Structure (SMILES)
10 to 100 nM	Cc1c(-c2ccc(CNCCO)cc2)cccc1-c1cccc(-c2ccn3c(CNC[C@@H]4CCC(=O)N4)nnc3c2)c1C [Example 86, (S)-5-((((7-(4″-(((2-hydroxyethyl)amino)methyl)-2,2′-dimethyl-[1,1′:3′,1″-terphenyl]-3-yl)-[1,2,4]triazolo[4,3-a]pyridin-3-yl)methyl)amino)methyl)pyrrolidin-2-one]
10 to 100 nM	Cc1c(-c2ccc3c(c2)OCCO3)cccc1-c1ccn2c(-n3ccc(C(=O)NCC(=O)O)n3)nnc2c1 [Example 49, (1-(7-(3-(2,3-dihydrobenzo[b][1,4]dioxin-6-yl)-2-methylphenyl)-[1,2,4]triazolo[4,3-a]pyridin-3-yl)-1H-pyrazole-3-carbonyl)glycine]
100 to 1000 nM	Cc1c(-c2ccccc2)cccc1-c1ccn2c(-c3ccc(CN4CCC[C@H]4C(=O)O)cc3)nnc2c1 [Example 53, (4-(7-(2-methyl-[1,1′-biphenyl]-3-yl)-[1,2,4]triazolo [4,3-a]pyridin-3-yl)benzyl)proline]
100 to 1000 nM	Cc1c(NC(=O)c2ccc(CNCCO)cc2)cccc1-c1cccc(-c2ccn3nc(CNC[C@@H]4CCC(=O)N4)nc3c2)c1C [Example 103, (S)—N-(2,2′-dimethyl-3′-(2-((((5-oxopyrrolidin-2-yl)methyl)amino)methyl)-[1,2,4]triazolo[1,5-a]pyridin-7-yl)-[1,1′-biphenyl]-3-yl)-4-(((2-hydroxyethyl)amino)methyl)benzamide]
100 to 1000 nM	COc1cc(-c2cnc3cc(-c4cccc(-c5ccc6c(c5)OCCO6)c4C)ccn23)cc(OC)c1CN1CCC[C@H]1C(=O)O [Example 40, (4-(7-(3-(2,3-dihydrobenzo[b][1,4]dioxin-6-yl)-2-methylphenyl)imidazo[1,2-a]pyridin-3-yl)-2,6-dimethoxybenzyl)-L-proline]
10 to 100 nM	Cc1c(-c2ccc(CNCCO)cc2)cccc1-c1cccc(-c2ccn3c(CN4CC[C@@H](C(=O)O)C4)nnc3c2)c1C [Example 87, (R)-1-((7-(4″-(((2-hydroxyethyl)amino)methyl)-2,2′-dimethyl-[1,1′:3′,1″-terphenyl]-3-yl)-[1,2,4]triazolo[4,3-a]pyridin-3-yl)methyl)pyrrolidine-3-carboxylic acid]
10 to 100 nM	OCCNCc1ccc(-c2cccc(-c3cccc(-c4ccn5c(-c6ccc(CNCCO)cc6)nnc5c4)c3Cl)c2Cl)cc1 [Example 66, 2-(((2′,2″-dichloro-3″-(3-(4-(((2-hydroxyethyl)amino)methyl)phenyl)-[1,2,4]triazolo[4,3-a]pyridin-7-yl)-[1,1′:3′,1″-terphenyl]-4-yl)methyl)amino)ethan-1-ol]
100 to 1000 nM	Cc1c(-c2ccccc2)cccc1-c1ccn2c(-c3ccc(CNCCO)cc3)nnc2c1 [Example 54, 2-((4-(7-(2-methyl-[1,1′-biphenyl]-3-yl)-[1,2,4]triazolo[4,3-a]pyridin-3-yl)benzyl)amino)ethan-1-ol]
100 to 1000 nM	Cc1c(-c2ccn3c(CNCCO)nnc3c2)cccc1-c1cccc(-c2ccn3c(CNCCO)nnc3c2)c1C [Example 89, 2,2′-((((2,2′-dimethyl-[1,1′-biphenyl]-3,3′-diyl)bis([1,2,4]triazolo[4,3-a]pyridine-7,3-diyl))bis(methylene))bis(azanediyl))bis(ethan-1-ol)]
100 to 1000 nM	Cc1c(-c2ccccc2)cccc1-c1ccn2c(-c3ccc(CN4CC[C@H]4C(=O)O)cc3)cnc2c1 [Example 13, (S)-1-(4-(7-(2-methyl-[1,1′-biphenyl]-3-yl)imidazo[1,2-a]pyridin-3-yl)benzyl)azetidine-2-carboxylic acid]
100 to 1000 nM	Cc1c(-c2ccccc2)cccc1-c1ccn2c(-c3ccc(CN4CCC[C@@H]4C(=O)O)cc3)cnc2c1 [Example 11, (4-(7-(2-methyl-[1,1′-biphenyl]-3-yl)imidazo[1,2-a]pyridin-3-yl)benzyl)-D-proline]
10 to 100 nM	Cc1c(-c2ccc(CNC[C@H]3CCC(=O)N3)cc2)cccc1-c1cccc(-c2ccn3c(-c4ccc(CNC[C@H]5CCC(=O)N5)cc4)nnc3c2)c1C [Example 76, (R)-5-((((2′,2″-dimethyl-3″-(3-(4-(((((R)-5-oxopyrrolidin-2-yl)methyl)amino)methyl)phenyl)-[1,2,4]triazolo[4,3-α]pyridin-7-yl)-[1,1′:3′,1″-terphenyl]-4-yl)methyl)amino)methyl)pyrrolidin-2-one]
≤ 10 nM	OCCCNCc1ccc(-c2cccc(-c3cccc(-c4ccn5nc(CNCCCO)nc5c4)c3Cl)c2Cl)cc1 [Example 111, 3-(((2′,2″-dichloro-3″-(2-(((3-hydroxypropyl)amino)methyl)-[1,2,4]triazolo[1,5-a]pyridin-7-yl)-[1,1′:3′,1″-terphenyl]-4-yl)methyl)amino)propan-1-ol]
≤ 10 nM	Cc1c(-c2ccc(CNCCO)cc2)cccc1-c1cccc(-c2ccn3c(-c4ccc(CN5CCC[C@H]5C(=O)O)cc4)nnc3c2)c1C [Example 64, (4-(7-(4″-(((2-hydroxyethyl)amino)methyl)-2,2′-dimethyl-[1,1′:3′,1″-terphenyl]-3-yl)-[1,2,4]triazolo[4,3-α]pyridin-3-yl)benzyl)-L-proline]
≤ 10 nM	Cc1c(NC(=O)c2ccc(CNCCO)cn2)cccc1-c1cccc(-c2ccn3c(-c4ccc(CN5CCC[C@@H]5C(=O)O)cc4)nnc3c2)c1C [Example 68, (4-(7-(3′-(5-(((2-hydroxyethyl)amino)methyl)picolinamido)-2,2′-dimethyl-[1,1′-biphenyl]-3-yl)-[1,2,4]triazolo[4,3-a]pyridin-3-yl)benzyl)-D-proline]
≤ 10 nM	O=C(O)[C@H]1CCCN1Cc1ccc(-c2nnc3cc(-c4cccc(-c5cccc(-c6ccc(CNCCO)cc6)c5Cl)c4Cl)ccn23)cc1 [Example 67, (4-(7-(2,2′-dichloro-4″-(((2-hydroxyethyl)amino)methyl)-[1,1′:3′,1″-terphenyl]-3-yl)-[1,2,4]triazolo[4,3-a]pyridin-3-yl)benzyl)-D-proline]
10 to 100 nM	Cc1c(-c2ccccc2)cccc1-c1ccn2c(-c3ccc(CN4CCC[C@H]4C(=O)O)cc3)cnc2c1 [Example 2, (4-(7-(2-methyl-[1,1′-biphenyl]-3-yl)imidazo[1,2-a]pyridin-3-yl)benzyl)proline]
≤ 10 nM	Cc1c(Nc2nccc3cc(CNCCO)cnc23)cccc1-c1cccc(-c2ccn3c(-c4ccc(CNCCO)cc4)nnc3c2)c1C [Example 84, 2-((4-(7-(3′-((3-(((2-hydroxyethyl)amino)methyl)-1,7-naphthyridin-8-yl)amino)-2,2′-dimethyl-[1,1′-biphenyl]-3-yl)-[1,2,4]triazolo[4,3-a]pyridin-3-yl)benzyl)amino)ethan-1-ol]
≤ 10 nM	COc1nc(-c2cccc(-c3cccc(-c4ccn5c(-c6ccc(CNCCO)cc6)nnc5c4)c3C)c2C)ccc1CNCCO [Example 77, 2-((4-(7-(3′-(5-(((2-hydroxyethyl)amino)methyl)-6-methoxypyridin-2-yl)-2,2′-dimethyl-[1,1′-biphenyl]-3-yl)-[1,2,4]triazolo[4,3-ai]pyridin-3-yl)benzyl)amino)ethan-1-ol]
100 to 1000 nM	Cc1c(-c2ccc3c(c2)OCCO3)cccc1-c1ccn2c(-c3ccc(CNCC(O)CC(=O)O)cc3)cnc2c1 (centres unmarked) [Example 30, 4-((4-(7-(3-(2,3-dihydrobenzo[b][1,4]dioxin-6-yl)-2-methylphenyl)imidazo[1,2-a]pyridin-3-yl)benzyl)amino)-3-hydroxybutanoic acid]

— patent US20260265248A1, “NOVEL PD-L1 INHIBITORS” (AFFIRMA BIOTECH S. L., priority 2023, published 2026)
